Reference: PubChem BioAssay (NCI)
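In this assay, cells in 96-well plates receive the compound at five concentrations for 48 hours. Endpoints are linearly interpolated between the surrounding concentrations. At the TGI there is no net growth.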

How the values were obtained:
Assay in all cases: growth of human tumour cells (NCI), 48 h
786-0 renal = test system: 786-0 renal
A498 renal = test system: A498 renal
A549 NSCLC = test system: A549 NSCLC
ACHN renal = test system: ACHN renal
BT-549 breast = test system: BT-549 breast
CAKI-1 renal = test system: CAKI-1 renal
CCRF-CEM leukemia = test system: CCRF-CEM leukemia
COLO 205 colon = test system: COLO 205 colon
DU-145 prostate = test system: DU-145 prostate
EKVX NSCLC = test system: EKVX NSCLC
HCC-2998 colon = test system: HCC-2998 colon
HCT-116 colon = test system: HCT-116 colon
HCT-15 colon = test system: HCT-15 colon
HL-60(TB) leukemia = test system: HL-60(TB) leukemia
HOP-62 NSCLC = test system: HOP-62 NSCLC
HOP-92 NSCLC = test system: HOP-92 NSCLC
HS 578T breast = test system: HS 578T breast
HT29 colon = test system: HT29 colon
IGROV1 ovarian = test system: IGROV1 ovarian
K-562 leukemia = test system: K-562 leukemia
KM12 colon = test system: KM12 colon
LOX IMVI melanoma = test system: LOX IMVI melanoma
M14 melanoma = test system: M14 melanoma
MALME-3M melanoma = test system: MALME-3M melanoma
MDA-MB-231 breast = test system: MDA-MB-231 breast
MDA-MB-435 = test system: MDA-MB-435
MDA-N = test system: MDA-N
MOLT-4 leukemia = test system: MOLT-4 leukemia
NCI-H226 lung = test system: NCI-H226 lung
NCI-H23 lung = test system: NCI-H23 lung
NCI-H460 lung = test system: NCI-H460 lung
NCI-H522 lung = test system: NCI-H522 lung
OVCAR-3 ovarian = test system: OVCAR-3 ovarian
OVCAR-4 ovarian = test system: OVCAR-4 ovarian
OVCAR-5 ovarian = test system: OVCAR-5 ovarian
OVCAR-8 ovarian = test system: OVCAR-8 ovarian
PC-3 prostate = test system: PC-3 prostate
RPMI-8226 leukemia = test system: RPMI-8226 leukemia
RXF 393 renal = test system: RXF 393 renal
SF-268 CNS = test system: SF-268 CNS
SF-295 CNS = test system: SF-295 CNS
SF-539 CNS = test system: SF-539 CNS
SK-MEL-2 melanoma = test system: SK-MEL-2 melanoma
SK-MEL-28 melanoma = test system: SK-MEL-28 melanoma
SK-MEL-5 melanoma = test system: SK-MEL-5 melanoma
SK-OV-3 ovarian = test system: SK-OV-3 ovarian
SN12C renal = test system: SN12C renal
SNB-19 CNS = test system: SNB-19 CNS
SNB-75 CNS = test system: SNB-75 CNS
SR leukemia = test system: SR leukemia
SW-620 colon = test system: SW-620 colon
T-47D breast = test system: T-47D breast
TK-10 renal = test system: TK-10 renal
U251 CNS = test system: U251 CNS
UACC-257 melanoma = test system: UACC-257 melanoma
UACC-62 melanoma = test system: UACC-62 melanoma
UO-31 renal = test system: UO-31 renal

Measured: TGI

C=C1C(O)C23CCC4C(C(=O)O)(C(=O)O)CC(OC5OC(CO)C(O)C(OC(=O)CCc6ccccc6)C5NC(=O)CC(C)C)CC4(C)C2CCC1(O)C3 (configuration not stated)
> 100 µM: all assays above
